Data from a melting point compilation (Tetko et al.; mined from patent text by program, amines drawn as free bases though some values may be those of a salt).

**Q.** Which melting point does the source give for `CCCCCOC(=O)c1cc(O)c2c(n1)c(C)cc1c(O)cc(C(=O)OCCCCC)nc12` here?
**A.** 137 to 139 °C

**Q.** For `CC(=O)NC(C)COC1CCC(c2cc3ccc(OCC4CC4)cc3o2)CC1` (stereo unspecified), which melting point is on record?
**A.** 104 to 105 °C

**Q.** For `COc1ccc(-c2nc(C(=O)Cl)c(C)o2)cc1`, which melting point is on record?
**A.** 89 °C

**Q.** Which melting point does the source give for `O=C(O)CCNC(=O)C(=Cc1ccc(C(F)(F)F)cc1)CS` here?
**A.** 108 °C

**Q.** For `O=C(CNS(=O)(=O)c1ccc2ccccc2c1)NCCNC(=O)C1CCN(c2ccncc2)CC1`, which melting point is on record?
**A.** 107 to 109 °C

**Q.** For `CCC1(CC)OC(c2ccc(S(C)(=O)=O)cc2)=C(c2cccc(Cl)c2)C1=O`, which melting point is on record?
**A.** 131 to 132 °C

**Q.** For `CNc1nc(SC)ncc1Cl`, which melting point is on record?
**A.** 241 °C

**Q.** Which melting point does the source give for `NC(=O)C(=O)NCCC(F)=C(F)F` here?
**A.** 190 to 220 °C

**Q.** With `COc1ccc2c(Cc3c(Cl)cncc3Cl)nnc(-n3cncn3)c2c1` as the compound, how does the melting point read?
**A.** 207 to 208 °C

**Q.** With `CCc1cc(C#N)c(OC)nc1C` as the compound, how does the melting point read?
**A.** 59 to 61 °C

**Q.** With `COC(=O)N(CC(=O)Nc1ccc(S(N)(=O)=O)cc1Cl)c1ccccc1` as the compound, how does the melting point read?
**A.** 196 to 198 °C

**Q.** With `Nc1ncccc1C(=O)NCC1CCN(C[C@H]2COc3cccc(Cl)c3O2)CC1` as the compound, how does the melting point read?
**A.** 62 to 70 °C

**Q.** For `CC(C)N1CC2(COc3ccc([N+](=O)[O-])cc3OC2)OC1c1ccccc1` (stereo unspecified), which melting point is on record?
**A.** 151 to 152 °C

**Q.** Which melting point does the source give for `CC(=O)ON(C)C(=O)/C=C/c1ccc(-n2c(C)ccc2C)cc1` here?
**A.** 120 to 121 °C

**Q.** Which melting point does the source give for `CC(NC(=O)c1cccnc1Oc1ccc(F)cc1)c1ccc(Cl)s1` (single isomer, unassigned; (+)) here?
**A.** 78 to 80 °C

**Q.** With `CCOC(=O)c1ccc2c(c1)S(=O)c1cc([N+](=O)[O-])ccc1-2` (stereo unspecified) as the compound, how does the melting point read?
**A.** 245 to 250 °C

**Q.** For `CC/C(=C(/c1ccc(O)cc1)c1ccc(OCCN(C)C)cc1)c1ccc(C(C)C)cc1`, which melting point is on record?
**A.** 95 to 96 °C

**Q.** With `O=C1CC(CO)N1Cc1ccccc1` (stereo unspecified) as the compound, how does the melting point read?
**A.** 94 °C

**Q.** Which melting point does the source give for `Cc1nc(-c2cccnc2)sc1-c1ccnc(Nc2cccc(CN)c2)n1` here?
**A.** 211 to 213 °C

**Q.** With `CC1=C(C(=O)OC(C)C)C(c2cccc(Cl)c2Cl)N(C(=O)OC(C)C)C(=O)N1` (stereo unspecified) as the compound, how does the melting point read?
**A.** 158 to 160 °C

**Q.** For `CN(c1nc(=O)n(C)cc1F)S(=O)(=O)Cc1ccccc1`, which melting point is on record?
**A.** 159 to 160 °C

**Q.** Which melting point does the source give for `CC(C)(C)OC(=O)N1C(=O)[C@@H](O[Si](C)(C)C)[C@H]1c1ccccc1` here?
**A.** 85 to 88 °C

**Q.** For `CC(C)(CC12CC3CC(CC(C3)C1)C2)NC=O`, which melting point is on record?
**A.** 87 to 88 °C

**Q.** With `Cc1nc(NC(=O)Cc2cccs2)c(Br)c(C)c1Br` as the compound, how does the melting point read?
**A.** 154 °C

**Q.** With `Cc1ccc(NC(=O)c2nc[nH]c2C)cc1Cl` as the compound, how does the melting point read?
**A.** 215 to 217 °C

**Q.** Which melting point does the source give for `COc1cc2ncnc(N3CCCc4cc(C)ccc43)c2cc1OC` here?
**A.** 147 to 148 °C

**Q.** For `COc1cc2c(cc1OC)C1(O)c3ccccc3CCN1C2=O` (stereo unspecified), which melting point is on record?
**A.** 220 °C

**Q.** Which melting point does the source give for `C=C(C)C(=O)NCCCNC(=O)CC(C)=O` here?
**A.** 93 to 94 °C

**Q.** For `CN(C(=O)c1ccc2nonc2c1)C1CCCC(=O)C1` (stereo unspecified), which melting point is on record?
**A.** 164 to 165 °C

**Q.** With `COCCNC(=O)c1nc(C)c2cc(Cc3ccc(F)cc3)cnc2c1OCc1ccccc1` as the compound, how does the melting point read?
**A.** 167 to 168 °C

**Q.** With `OC(CCl)COc1cccc(-c2nc(C(F)(F)F)c[nH]2)c1` (stereo unspecified) as the compound, how does the melting point read?
**A.** 181 to 183 °C

**Q.** For `CC1(C)CC(OC(=O)CCC(=O)OC2CC(C)(C)NC(C)(C)C2)CC(C)(C)N1`, which melting point is on record?
**A.** 118 °C

**Q.** For `O=C(O)CCC12CC(c3ccccc31)c1ccccc12`, which melting point is on record?
**A.** 185 to 189 °C

**Q.** For `COC(=O)Cc1ccc(OCCNC(=O)C2Cc3ccccc3N2S(=O)(=O)c2ccc(-c3cc(Cl)ccc3Cl)cc2)cc1` (stereo unspecified), which melting point is on record?
**A.** 61 to 65 °C

**Q.** Which melting point does the source give for `COc1cc(-c2ccccc2Cl)c(Cl)cc1C(=O)N1Cc2ccc(C(=O)O)n2Cc2ccccc21` here?
**A.** 209 to 211 °C

**Q.** With `CCCc1c(OCCCOc2ccc3c(c2CCC)OC(C(=O)O)CC3)ccc(C(C)=O)c1O` (stereo unspecified) as the compound, how does the melting point read?
**A.** 108 to 109 °C

**Q.** For `CCCn1c(COCC)nc2c(N)nc3cc(OCC(=O)N4CCOCC4)ccc3c21`, which melting point is on record?
**A.** 213 °C

**Q.** Which melting point does the source give for `[O-][N+](=CCCc1ccccc1)C1CCCCC1` here?
**A.** 97.2 °C

**Q.** Which melting point does the source give for `COc1ccc(CNn2nnc3c(-c4ccco4)ncnc32)cc1` here?
**A.** 166 to 168 °C

**Q.** Which melting point does the source give for `CNCC(O)c1ccc(F)cc1` (stereo unspecified) here?
**A.** 77 to 78.8 °C

**Q.** With `CCOc1ccc2[nH]c(C(=O)O)cc2c1` as the compound, how does the melting point read?
**A.** 180 °C

**Q.** For `CCCCN(CCCC)S(=O)(=O)c1ccc(-n2oc(C)cc2=O)c([N+](=O)[O-])c1`, which melting point is on record?
**A.** 84 to 86 °C

**Q.** Which melting point does the source give for `COC(=O)c1cnc(CO)n1C` here?
**A.** 145 to 147 °C

**Q.** Which melting point does the source give for `Cc1cc(C(=O)c2ccc(Br)cc2)c(O)cc1Cl` here?
**A.** 238 to 239 °C

**Q.** With `CC(C)n1nc(-c2cc(-c3ccccc3)c(N)nc2-c2ccccc2)ccc1=O` as the compound, how does the melting point read?
**A.** 208 to 209 °C

**Q.** Which melting point does the source give for `CCCc1nnc(CCc2cc(OCc3ccc(OCc4nc(-c5ccccc5)oc4C)c(OC)c3)nn2-c2ccccc2)o1` here?
**A.** 85 to 86 °C

**Q.** Which melting point does the source give for `CCOc1cc2c(Nc3cc(OC)c(Cl)cc3Cl)c(C#N)cnc2cc1OCCCN1CCN(C)CC1` here?
**A.** 137 to 138 °C

**Q.** With `COCCOc1ccc(CCCNS(=O)(=O)c2cccc(Cl)c2)c(Oc2ncc(C(F)(F)F)cc2Cl)c1` as the compound, how does the melting point read?
**A.** 110 to 114 °C

**Q.** For `Cc1nc(-n2ccc(OCc3cccnc3)cc2=O)sc1C(=O)NCc1ccccc1`, which melting point is on record?
**A.** 214 to 216 °C

**Q.** For `CCCCCCCCCCC(O)C(O)CCC(O)C1CCC(=O)O1` (stereo unspecified), which melting point is on record?
**A.** 99 to 100 °C

**Q.** With `Cc1ccccc1-n1ccc(=O)c(-c2ccnn2-c2ccccc2)n1` as the compound, how does the melting point read?
**A.** 120 to 121 °C
